Test results taken from PubChem BioAssay AID190 (DTP/NCI, 2004).
Several values for one entry are separate records, joined by “and”; a condition that tells them apart may be missing. Equal values may be shown once. Inconclusive results and toxic doses are left out.

Test system: AKR/Lw mice, AKR lymphoma ip, median survival T/C
Experiment: NCI In Vivo Anticancer Drug Screen. Data for tumor model Lymphoma AKR (Transplanted) (intraperitoneal) in AKR/Lw mice
Conditions: endpoint: median survival time, higher = longer survival
Method: The antitumor activity of compounds was measured in mice bearing transplantable tumors. Survival or tumor size were measured and the results are expressed as the measurement made in the treated group (T) divided by the measurement made in the vehicle treated control group (C). The tumor model used in this assay is Lymphoma AKR (Transplanted) (intraperitoneal) in AKR/Lw mice

[1] = dose: 400.0 mg/kg/injection, schedule: Q01DX001 (ip), vehicle: saline
[2] = dose: 100.0 mg/kg/injection, schedule: Q01DX001 (ip), vehicle: Klucel (hydroxypropylcellulose) (HPC)
[3] = dose: 100.0 mg/kg/injection, schedule: Q01DX001 (ip), vehicle: saline
[4] = dose: 200.0 mg/kg/injection, schedule: Q01DX001 (ip), vehicle: Klucel (hydroxypropylcellulose) (HPC)
[5] = dose: 200.0 mg/kg/injection, schedule: Q01DX001 (ip), vehicle: saline
[6] = dose: 400.0 mg/kg/injection, schedule: Q01DX001 (ip), vehicle: Klucel (hydroxypropylcellulose) (HPC)
[7] = dose: 200.0 mg/kg/injection, schedule: Q04DX003 (ip), vehicle: Klucel (hydroxypropylcellulose) (HPC)

## O=P1(NCCCl)OCCCN1CCCl (configuration not stated)
dose: 5.0 mg/kg/injection, schedule: Q01DX009 (ip), vehicle: saline
  T/C: 108 % of control
dose: 6.25 mg/kg/injection, schedule: Q04DX003 (ip), vehicle: saline
  T/C: 96 % of control
dose: 10.0 mg/kg/injection, schedule: Q01DX009 (ip), vehicle: saline
  T/C: 110 % of control and 113 % of control
dose: 12.5 mg/kg/injection, schedule: Q04DX003 (ip), vehicle: saline
  T/C: 96 % of control
dose: 18.7 mg/kg/injection, schedule: Q01DX001 (ip), vehicle: saline
  T/C: 95 % of control
dose: 18.75 mg/kg/injection, schedule: Q01DX001 (ip), vehicle: saline
  T/C: 97 % of control
dose: 25.0 mg/kg/injection, schedule: Q01DX001 (ip), vehicle: saline
  T/C: 120 % of control
dose: 37.5 mg/kg/injection, schedule: Q01DX001 (ip), vehicle: saline
  T/C: 95 % of control and 113 % of control
dose: 37.5 mg/kg/injection, schedule: Q04DX003 (ip), vehicle: saline
  T/C: 95 % of control
dose: 50.0 mg/kg/injection, schedule: Q01DX001 (sc), vehicle: steriod suspending solution
  T/C: 103 % of control
dose: 54.0 mg/kg/injection, schedule: Q01DX001 (ip), vehicle: saline with Tween-80
  T/C: 162 % of control
dose: 54.0 mg/kg/injection, schedule: Q07DX002 (ip), vehicle: water
  T/C: 155 % of control
dose: 60.0 mg/kg/injection, schedule: Q01DX009 (ip), vehicle: saline
  T/C: 115 % of control
dose: 75.0 mg/kg/injection, schedule: Q07DX003 (ip), vehicle: saline
  T/C: 168 % of control and 184 % of control and 186 % of control
dose: 80.0 mg/kg/injection, schedule: Q01DX009 (ip), vehicle: saline
  T/C: 90 % of control
dose: 100.0 mg/kg/injection, schedule: Q07DX003 (ip), vehicle: saline
  T/C: 189 % of control
dose: 108.0 mg/kg/injection, schedule: Q01DX001 (ip), vehicle: saline with Tween-80
  T/C: 346 % of control
dose: 108.0 mg/kg/injection, schedule: Q07DX002 (ip), vehicle: water
  T/C: 355 % of control
dose: 125.0 mg/kg/injection, schedule: Q01DX001 (ip), vehicle: saline
  T/C: 113 % of control and 153 % of control and 222 % of control
dose: 125.0 mg/kg/injection, schedule: Q01DX001 (sc), vehicle: steriod suspending solution
  T/C: 153 % of control
dose: 125.0 mg/kg/injection, schedule: Q04DX003 (ip), vehicle: saline
  T/C: 182 % of control and 236 % of control
dose: 125.0 mg/kg/injection, schedule: Q07DX003 (ip), vehicle: saline
  T/C: 157 % of control
dose: 216.0 mg/kg/injection, schedule: Q01DX001 (ip), vehicle: saline with Tween-80
  T/C: 375 % of control
dose: 216.0 mg/kg/injection, schedule: Q07DX002 (ip), vehicle: water
  T/C: 333 % of control
dose: 250.0 mg/kg/injection, schedule: Q01DX001 (ip), vehicle: saline
  T/C: 120 % of control and 222 % of control
dose: 250.0 mg/kg/injection, schedule: Q01DX001 (sc), vehicle: steriod suspending solution
  T/C: 120 % of control
dose: 250.0 mg/kg/injection, schedule: Q04DX003 (ip), vehicle: saline
  T/C: 221 % of control and 236 % of control
dose: 300.0 mg/kg/injection, schedule: Q04DX003 (ip), vehicle: saline
  T/C: 105 % of control
[1]
  T/C: 86 % of control
dose: 400.0 mg/kg/injection, schedule: Q01DX001 (sc), vehicle: steriod suspending solution
  T/C: 123 % of control
dose: 432.0 mg/kg/injection, schedule: Q01DX001 (ip), vehicle: saline with Tween-80
  T/C: 375 % of control
dose: 600.0 mg/kg/injection, schedule: Q01DX001 (ip), vehicle: saline
  T/C: 111 % of control

## O=NN(CCCl)C(=O)NC1CC2CCC1C2 (configuration not stated)
dose: 0.31 mg/kg/injection, schedule: Q04DX004 (ip), vehicle: Klucel (hydroxypropylcellulose) (HPC)
  T/C: 115 % of control
dose: 0.62 mg/kg/injection, schedule: Q04DX004 (ip), vehicle: Klucel (hydroxypropylcellulose) (HPC)
  T/C: 93 % of control
dose: 0.75 mg/kg/injection, schedule: Q04DX008 (ip), vehicle: Klucel (hydroxypropylcellulose) (HPC)
  T/C: 102 % of control
dose: 1.25 mg/kg/injection, schedule: Q04DX004 (ip), vehicle: Klucel (hydroxypropylcellulose) (HPC)
  T/C: 112 % of control
dose: 1.5 mg/kg/injection, schedule: Q04DX008 (ip), vehicle: Klucel (hydroxypropylcellulose) (HPC)
  T/C: 108 % of control
dose: 2.5 mg/kg/injection, schedule: Q04DX004 (ip), vehicle: Klucel (hydroxypropylcellulose) (HPC)
  T/C: 112 % of control
dose: 5.0 mg/kg/injection, schedule: Q04DX004 (ip), vehicle: Klucel (hydroxypropylcellulose) (HPC)
  T/C: 120 % of control
dose: 5.0 mg/kg/injection, schedule: Q04DX008 (ip), vehicle: Klucel (hydroxypropylcellulose) (HPC)
  T/C: 150 % of control
dose: 10.0 mg/kg/injection, schedule: Q04DX004 (ip), vehicle: Klucel (hydroxypropylcellulose) (HPC)
  T/C: 114 % of control
dose: 20.0 mg/kg/injection, schedule: Q04DX004 (ip), vehicle: Klucel (hydroxypropylcellulose) (HPC)
  T/C: 114 % of control

## C1CC2C(CCCC23OCCO3)C2(C1)OCCO2 (configuration not stated)
[2]
  T/C: 103 % of control
[3]
  T/C: 106 % of control
[4]
  T/C: 96 % of control
[5]
  T/C: 106 % of control
[6]
  T/C: 93 % of control
[1]
  T/C: 113 % of control

## CCn1c(O)c(C=N)c(=O)[nH]c1=O
dose: 50.0 mg/kg/injection, schedule: Q01DX001 (ip), vehicle: saline
  T/C: 102 % of control
dose: 50.0 mg/kg/injection, schedule: Q04DX003 (ip), vehicle: Klucel (hydroxypropylcellulose) (HPC)
  T/C: 87 % of control
[3]
  T/C: 94 % of control
[5]
  T/C: 94 % of control
[7]
  T/C: 93 % of control

## COc1ccccc1Oc1ccc(N=Cc2ccc(C)cc2)cc1
[2]
  T/C: 93 % of control
dose: 100.0 mg/kg/injection, schedule: Q04DX003 (ip), vehicle: Klucel (hydroxypropylcellulose) (HPC)
  T/C: 93 % of control
[4]
  T/C: 100 % of control
[7]
  T/C: 97 % of control
[6]
  T/C: 93 % of control
dose: 400.0 mg/kg/injection, schedule: Q04DX003 (ip), vehicle: Klucel (hydroxypropylcellulose) (HPC)
  T/C: 102 % of control

## NS(=O)(=O)c1ccc(N=Nc2nc3ncnc(SCc4cccs4)c3[nH]2)cc1
[2]
  T/C: 97 % of control
[4]
  T/C: 102 % of control
[6]
  T/C: 107 % of control
